Reference: ChEMBL document CHEMBL1201862, “PubChem BioAssay data set” (2004)
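Compound exposure: 48 hours, 5 concentrations, 96-well plates. GI50 is the concentration that inhibits growth by half.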 Active and inactive are the calls of the source. Cut-off read from the data, not from the text of the source: active = GI50 up to about 1.1 µM and inactive = higher.

Key:
Assay in all cases: DTP human tumour cell line panel, 48 h
MDA-N = tested on: MDA-N
SK-MEL-5 = tested on: SK-MEL-5
CAKI-1 = tested on: CAKI-1
HCT-15 = tested on: HCT-15
OVCAR-4 = tested on: OVCAR-4
IGROV-1 = tested on: IGROV-1
LOX IMVI = tested on: LOX IMVI
M14 = tested on: M14
EKVX = tested on: EKVX
OVCAR-3 = tested on: OVCAR-3
OVCAR-5 = tested on: OVCAR-5
SF-295 = tested on: SF-295
UACC-62 = tested on: UACC-62
UACC-257 = tested on: UACC-257
NCI-H226 = tested on: NCI-H226
Malme-3M = tested on: Malme-3M
786-0 = tested on: 786-0
NCI-H522 = tested on: NCI-H522
HOP-62 = tested on: HOP-62

SMILES | GI50 (MDA-N) | GI50 (SK-MEL-5) | GI50 (CAKI-1) | GI50 (HCT-15) [µM] | GI50 (OVCAR-4) | GI50 (IGROV-1) | GI50 (LOX IMVI) | GI50 (M14) | GI50 (EKVX) | GI50 (OVCAR-3) | GI50 (OVCAR-5) | GI50 (SF-295) | GI50 (UACC-62) | GI50 (UACC-257) | GI50 (NCI-H226) | GI50 (Malme-3M) | GI50 (786-0) | GI50 (NCI-H522) | GI50 (HOP-62)
CCCCN(CCCC)c1ccc(/N=N/c2ccc(S(=O)(=O)O)cc2)cc1 | 52.2 µM (inactive) | 16.2 µM (inactive) | 20.2 µM (inactive) | 17.2 | 17.8 µM (inactive) | 14.7 µM (inactive) | 18.9 µM (inactive) | > 100 µM (inactive) | 39.1 µM (inactive) | 30.1 µM (inactive) | 60.8 µM (inactive) | 40.9 µM (inactive) | > 100 µM (inactive) | 94.4 µM (inactive) | – | – | – | – | –
CCCCOC(=O)CNC(=O)OCCCCC#CC#CCCCCOC(=O)NCC(=O)OCCCC | – | > 100 µM (inactive) | > 100 µM (inactive) | – | > 100 µM (inactive) | > 100 µM (inactive) | > 100 µM (inactive) | > 100 µM (inactive) | > 100 µM (inactive) | – | > 100 µM (inactive) | > 100 µM (inactive) | > 100 µM (inactive) | > 100 µM (inactive) | > 100 µM (inactive) | > 100 µM (inactive) | > 100 µM (inactive) | 76.7 µM (inactive) | > 100 µM (inactive)
COc1ccc(-c2nc(Nc3ccccc3)sc2Cc2sc(Nc3ccccc3)nc2-c2ccc(OC)cc2)cc1 | 46.1 µM (inactive) | > 100 µM (inactive) | > 100 µM (inactive) | > 100 | 24.3 µM (inactive) | > 100 µM (inactive) | 15.5 µM (inactive) | – | > 100 µM (inactive) | 17.1 µM (inactive) | > 100 µM (inactive) | > 10 µM (inactive) | > 100 µM (inactive) | > 100 µM (inactive) | > 100 µM (inactive) | > 100 µM (inactive) | 98.9 µM (inactive) | – | > 100 µM (inactive)
CN(C)C(CN)CC1=C(CC(CN)N(C)C)CCC1 (configuration not stated) | – | > 100 µM (inactive) | > 100 µM (inactive) | > 100 | > 100 µM (inactive) | > 100 µM (inactive) | > 100 µM (inactive) | – | > 100 µM (inactive) | > 100 µM (inactive) | > 100 µM (inactive) | > 100 µM (inactive) | > 100 µM (inactive) | > 100 µM (inactive) | > 100 µM (inactive) | > 100 µM (inactive) | – | > 100 µM (inactive) | > 100 µM (inactive)
C/C=C/C1(C)/C(=N\O)C(C)(CCC)C(=O)N1O (configuration not stated) | – | > 100 µM (inactive) | > 100 µM (inactive) | > 100 | > 100 µM (inactive) | > 100 µM (inactive) | > 100 µM (inactive) | > 100 µM (inactive) | > 100 µM (inactive) | > 100 µM (inactive) | > 100 µM (inactive) | > 100 µM (inactive) | > 100 µM (inactive) | > 100 µM (inactive) | > 100 µM (inactive) | > 100 µM (inactive) | > 100 µM (inactive) | > 100 µM (inactive) | > 100 µM (inactive)
CCCNCCCC(NC(C)=O)C(=O)NCc1ccccc1 (configuration not stated) | – | > 100 µM (inactive) | > 100 µM (inactive) | > 100 | > 100 µM (inactive) | > 100 µM (inactive) | > 100 µM (inactive) | > 100 µM (inactive) | > 100 µM (inactive) | > 100 µM (inactive) | > 100 µM (inactive) | > 100 µM (inactive) | > 100 µM (inactive) | > 100 µM (inactive) | > 100 µM (inactive) | > 100 µM (inactive) | > 100 µM (inactive) | > 100 µM (inactive) | > 100 µM (inactive)
O=S(=O)(O)c1ccc(O)c2ncc(Cl)cc12 | > 100 µM (inactive) | > 100 µM (inactive) | > 100 µM (inactive) | > 100 | > 100 µM (inactive) | > 100 µM (inactive) | > 100 µM (inactive) | > 100 µM (inactive) | > 100 µM (inactive) | > 100 µM (inactive) | > 100 µM (inactive) | > 100 µM (inactive) | > 100 µM (inactive) | > 100 µM (inactive) | > 100 µM (inactive) | – | > 100 µM (inactive) | – | > 100 µM (inactive)
O=c1nc2n(cc1/C=C\Br)C1CC(O)C(CO2)O1 (configuration not stated) | > 100 µM (inactive) | > 100 µM (inactive) | > 100 µM (inactive) | > 100 | > 100 µM (inactive) | > 100 µM (inactive) | > 100 µM (inactive) | – | > 100 µM (inactive) | > 100 µM (inactive) | > 100 µM (inactive) | > 100 µM (inactive) | > 100 µM (inactive) | > 100 µM (inactive) | > 100 µM (inactive) | > 100 µM (inactive) | > 100 µM (inactive) | – | > 100 µM (inactive)
CCOP(=O)(OCC)OC1C=CC2CCC1C2 (configuration not stated) | – | > 100 µM (inactive) | > 100 µM (inactive) | 20.7 | > 100 µM (inactive) | > 100 µM (inactive) | > 100 µM (inactive) | > 100 µM (inactive) | > 100 µM (inactive) | > 100 µM (inactive) | > 100 µM (inactive) | > 100 µM (inactive) | > 100 µM (inactive) | > 100 µM (inactive) | > 100 µM (inactive) | > 100 µM (inactive) | 86.3 µM (inactive) | > 100 µM (inactive) | > 100 µM (inactive)
NC(=O)N/N=C1/CCCC/C1=C\c1ccccc1 | – | > 100 µM (inactive) | > 100 µM (inactive) | > 100 | > 100 µM (inactive) | > 100 µM (inactive) | > 100 µM (inactive) | > 100 µM (inactive) | > 100 µM (inactive) | > 100 µM (inactive) | > 100 µM (inactive) | > 100 µM (inactive) | > 100 µM (inactive) | > 100 µM (inactive) | > 100 µM (inactive) | > 100 µM (inactive) | > 100 µM (inactive) | > 100 µM (inactive) | > 100 µM (inactive)
C#Cc1cc(CN(CC(=O)OC(C)(C)C)CC(=O)OC(C)(C)C)nc(CN(CC(=O)OC(C)(C)C)CC(=O)OC(C)(C)C)c1 | – | 3.59 µM (inactive) | 10 µM (inactive) | 24.6 | 6.19 µM (inactive) | 7.66 µM (inactive) | 2.37 µM (inactive) | 5.89 µM (inactive) | 11.9 µM (inactive) | 3.04 µM (inactive) | 21.6 µM (inactive) | 4.39 µM (inactive) | 4.26 µM (inactive) | 2.82 µM (inactive) | 0.498 µM (active) | 4.17 µM (inactive) | 7.06 µM (inactive) | 2.01 µM (inactive) | 3.92 µM (inactive)
Cc1cc(C)nc(NS(=O)(=O)c2ccc(Nc3c4ccccc4nc4c(C(=O)Nc5ccc(S(=O)(=O)N=C(N)N)cc5)ccc(Cl)c34)cc2)n1 | – | 98.6 µM (inactive) | 36.1 µM (inactive) | – | 23.9 µM (inactive) | – | 19.4 µM (inactive) | 88.5 µM (inactive) | 56.4 µM (inactive) | 17.5 µM (inactive) | 41.2 µM (inactive) | 47.2 µM (inactive) | 19.3 µM (inactive) | 64.3 µM (inactive) | 21.9 µM (inactive) | 33.6 µM (inactive) | 38.9 µM (inactive) | 15.8 µM (inactive) | 23.2 µM (inactive)
COc1ccc(C2CCC(Cl)(OC)CC2C=O)cc1 (configuration not stated) | – | 58.7 µM (inactive) | 39.8 µM (inactive) | 49.4 | > 100 µM (inactive) | > 100 µM (inactive) | 13.3 µM (inactive) | 40.1 µM (inactive) | > 100 µM (inactive) | 94.2 µM (inactive) | > 100 µM (inactive) | 46.1 µM (inactive) | 58.7 µM (inactive) | > 100 µM (inactive) | > 100 µM (inactive) | 44.9 µM (inactive) | 45 µM (inactive) | 64.7 µM (inactive) | 94 µM (inactive)
CCCCCCCCCCCCCCCCOCC(CC(F)(F)P(=O)(OCC)OCC)OC(C)=O (configuration not stated) | 16.9 µM (inactive) | 21.1 µM (inactive) | 16.6 µM (inactive) | 5.94 | 14.9 µM (inactive) | 8.49 µM (inactive) | – | 17.9 µM (inactive) | 21.7 µM (inactive) | 17.5 µM (inactive) | 18.3 µM (inactive) | 11.6 µM (inactive) | 15.3 µM (inactive) | 17.5 µM (inactive) | 14.4 µM (inactive) | 10.6 µM (inactive) | 10.8 µM (inactive) | 13.1 µM (inactive) | –
CCOC(=O)/C(O)=C1\C(=O)N(C)C(=O)C1c1ccc(OC)c(OC)c1 (configuration not stated) | – | > 100 µM (inactive) | > 100 µM (inactive) | > 100 | > 100 µM (inactive) | > 100 µM (inactive) | > 100 µM (inactive) | – | > 100 µM (inactive) | > 100 µM (inactive) | > 100 µM (inactive) | > 100 µM (inactive) | > 100 µM (inactive) | > 100 µM (inactive) | > 100 µM (inactive) | > 100 µM (inactive) | – | > 100 µM (inactive) | > 100 µM (inactive)
COc1cc(CCc2ccc(OC(C)=O)cc2)cc(OC)c1OC | – | > 100 µM (inactive) | > 100 µM (inactive) | > 100 | > 100 µM (inactive) | > 100 µM (inactive) | 92 µM (inactive) | > 100 µM (inactive) | > 100 µM (inactive) | > 100 µM (inactive) | 72.4 µM (inactive) | > 100 µM (inactive) | > 100 µM (inactive) | > 100 µM (inactive) | > 100 µM (inactive) | > 100 µM (inactive) | > 100 µM (inactive) | 52 µM (inactive) | > 100 µM (inactive)
